Results: article PMC7997411, “Discovery and Optimization of Selective Inhibitors of Meprin α (Part II)” (Pharmaceuticals, 2021)
Where “and” joins values, the source holds several entries; their conditions need not be identical. Equal values may be shown once.

Tests used:
Type in all cases: biochemical
human meprin β = biological target: T1, human meprin β (Homo sapiens, UniProt Q16820); assay: Meprin β assay in a 384-well plate (fluorogenic substrate Mca-EDEDED-K(Dnp)); settings: for IC50: triplicate, ± SD
T1 construct: His-tag; made in house; host or cells: BTI-TN-5B1-4 insect cells (baculovirus, amplified in Sf9)
T1 sequence (Q16820 62-701): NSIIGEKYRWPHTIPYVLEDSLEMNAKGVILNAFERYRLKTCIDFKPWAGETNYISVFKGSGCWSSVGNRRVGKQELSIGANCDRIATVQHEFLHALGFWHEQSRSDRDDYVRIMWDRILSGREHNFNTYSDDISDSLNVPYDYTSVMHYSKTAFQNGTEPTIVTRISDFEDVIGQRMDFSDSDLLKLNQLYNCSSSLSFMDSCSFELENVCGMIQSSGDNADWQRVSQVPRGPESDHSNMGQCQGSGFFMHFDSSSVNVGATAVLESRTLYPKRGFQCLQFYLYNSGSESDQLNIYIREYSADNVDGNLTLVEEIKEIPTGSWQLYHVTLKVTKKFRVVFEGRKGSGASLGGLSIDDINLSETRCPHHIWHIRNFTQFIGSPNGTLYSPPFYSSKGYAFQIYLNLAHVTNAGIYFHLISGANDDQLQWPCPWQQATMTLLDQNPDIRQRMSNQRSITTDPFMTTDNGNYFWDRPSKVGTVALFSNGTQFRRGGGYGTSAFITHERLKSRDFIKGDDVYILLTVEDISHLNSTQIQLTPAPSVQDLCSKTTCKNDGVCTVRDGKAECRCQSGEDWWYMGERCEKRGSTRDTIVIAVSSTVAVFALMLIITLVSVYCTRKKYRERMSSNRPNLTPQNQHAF
Description: Recombinant human meprin α and meprin β were expressed using the Bac-to-Bac expression system (Gibco Life Technologies, Paisley, UK) as described before. Media and supplements were obtained from Gibco Life Technologies. Recombinant Baculoviruses were amplified in adherently growing Spodoptera frugiperda (Sf)9 insect cells at 27 °C in Grace’s insect medium supplemented with 10% fetal bovine serum, 50 units/mL penicillin, and 50 μg/mL streptomycin. Protein expression was performed in 500 mL suspension cultures of BTI-TN-5B1-4 insect cells growing in Express Five SFM supplemented with 4 mM glutamine, 50 units/mL penicillin, and 50 μg/mL streptomycin in Fernbach-flasks using a Multitron orbital shaker (INFORS AG, Bottmingen, Switzerland). Cells were infected at a density of 2 × 10^6 cells/mL with an amplified viral stock at a MOI of ~10. […] Meprins were activated by trypsin, which was removed afterwards by affinity chromatography using a column containing immobilized chicken ovomucoid, a trypsin inhibitor.
Both assays followed the same general protocol. […] After 30 min incubation at RT, the reactions were started by addition of 5 µL of 2× solutions of substrates (20 µM, meprin α Mca-YVADAPK-K(Dnp), and for meprin β Mca-EDEDED-K(Dnp)).

MMP13 = biological target: T2, MMP13 (Homo sapiens, UniProt P45452); assay: MMP assay (fluorogenic substrate ES010)
T2 construct: purchased R&D Systems 511-MM
Description: (§1) MMP-1, MMP-2, MMP-8, MMP-9, MMP-10, MMP-13, MMP-14, ADAM10, ADAM17 and Mca-KPLGL-Dpa-AR-NH2 fluorogenic peptide substrate were purchased from R&D Systems (cat # 901-MP, 902-MP, 908-MP, 911-MP, 910-MP, 511-MM, 918-MP, 936-AD, 930-ADB, and ES010, respectively). All common chemicals were purchased from Sigma. NFF449 was purchased from Tocris (cat# 1391) and actinonin was from Sigma-Aldrich, St. Louis, MO, USA (cat# 01809).
(§2) All assays followed the same general protocol. 5 µL of 2× enzyme solution (5 nM) in assay buffer (50 mM Tricine, 50 mM NaCl, 10 mM CaCl2, 0.05% Brij-35, pH 7.5) were added to solid-bottom black 384 plates (Nunc, cat# 264705). Next, test compounds and pharmacological controls were added to corresponding wells using a 384-pin tool device (V&P Scientific, San Diego). After 30 min incubation at RT, the reactions were started by addition of 5 µL of 2× solutions of MMP substrate (R&D Systems cat#: ES010, 20 µM). Reactions were incubated at RT for 1 h, after which the fluorescence was measured using the Synergy H4 multimode microplate reader (Biotek Instruments) (λexcitation = 324 nm, λemission = 390 nm). All compounds were tested in 10-point, 1:3 serial dilutions dose-response format starting with highest concentration of 100 µM. IC50 values were determined using non-linear regression analysis using the GraphPad Prism 8.0 suite of programs.

MMP14 = biological target: T3, MMP14 (Homo sapiens, UniProt P50281); assay: MMP assay (fluorogenic substrate ES010)
T3 construct: purchased R&D Systems 918-MP
Description: as §1, §2

MMP2 = biological target: T4, MMP2 (Homo sapiens, UniProt P08253); assay: MMP assay (fluorogenic substrate ES010)
T4 construct: purchased R&D Systems 902-MP
T4 sequence (P08253 110-660): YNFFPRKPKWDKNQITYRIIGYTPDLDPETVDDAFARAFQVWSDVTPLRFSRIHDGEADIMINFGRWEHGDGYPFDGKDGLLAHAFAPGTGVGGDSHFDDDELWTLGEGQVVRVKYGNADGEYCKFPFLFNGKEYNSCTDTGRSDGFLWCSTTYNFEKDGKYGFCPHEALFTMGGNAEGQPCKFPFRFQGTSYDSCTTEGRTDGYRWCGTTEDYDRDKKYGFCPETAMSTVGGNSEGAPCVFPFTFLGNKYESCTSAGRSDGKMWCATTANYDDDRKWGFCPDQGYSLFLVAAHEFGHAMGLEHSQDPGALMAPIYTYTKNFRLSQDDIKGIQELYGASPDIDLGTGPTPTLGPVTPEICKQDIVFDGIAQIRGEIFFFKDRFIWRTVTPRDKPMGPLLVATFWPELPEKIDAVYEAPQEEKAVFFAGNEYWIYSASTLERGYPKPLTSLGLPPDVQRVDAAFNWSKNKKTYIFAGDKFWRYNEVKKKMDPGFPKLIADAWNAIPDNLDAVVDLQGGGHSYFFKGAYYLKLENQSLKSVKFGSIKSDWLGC
Description: as §1, §2

MMP8 = biological target: T5, MMP8 (Homo sapiens, UniProt P22894); assay: MMP assay (fluorogenic substrate ES010)
T5 construct: purchased R&D Systems 908-MP
T5 sequence (P22894 101-467): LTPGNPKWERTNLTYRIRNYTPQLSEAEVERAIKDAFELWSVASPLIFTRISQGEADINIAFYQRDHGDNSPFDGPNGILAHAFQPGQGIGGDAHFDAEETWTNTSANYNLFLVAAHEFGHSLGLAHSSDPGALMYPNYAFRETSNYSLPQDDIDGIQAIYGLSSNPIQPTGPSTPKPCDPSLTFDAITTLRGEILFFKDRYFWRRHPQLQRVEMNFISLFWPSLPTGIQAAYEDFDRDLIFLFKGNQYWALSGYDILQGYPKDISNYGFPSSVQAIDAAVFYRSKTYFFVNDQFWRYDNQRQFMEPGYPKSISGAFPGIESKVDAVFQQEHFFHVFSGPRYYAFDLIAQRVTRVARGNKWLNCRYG
Description: as §1, §2

MMP9 = biological target: T6, MMP9 (Homo sapiens, UniProt P14780); assay: MMP assay (fluorogenic substrate ES010)
T6 construct: purchased R&D Systems 911-MP
T6 sequence (P14780 94-707): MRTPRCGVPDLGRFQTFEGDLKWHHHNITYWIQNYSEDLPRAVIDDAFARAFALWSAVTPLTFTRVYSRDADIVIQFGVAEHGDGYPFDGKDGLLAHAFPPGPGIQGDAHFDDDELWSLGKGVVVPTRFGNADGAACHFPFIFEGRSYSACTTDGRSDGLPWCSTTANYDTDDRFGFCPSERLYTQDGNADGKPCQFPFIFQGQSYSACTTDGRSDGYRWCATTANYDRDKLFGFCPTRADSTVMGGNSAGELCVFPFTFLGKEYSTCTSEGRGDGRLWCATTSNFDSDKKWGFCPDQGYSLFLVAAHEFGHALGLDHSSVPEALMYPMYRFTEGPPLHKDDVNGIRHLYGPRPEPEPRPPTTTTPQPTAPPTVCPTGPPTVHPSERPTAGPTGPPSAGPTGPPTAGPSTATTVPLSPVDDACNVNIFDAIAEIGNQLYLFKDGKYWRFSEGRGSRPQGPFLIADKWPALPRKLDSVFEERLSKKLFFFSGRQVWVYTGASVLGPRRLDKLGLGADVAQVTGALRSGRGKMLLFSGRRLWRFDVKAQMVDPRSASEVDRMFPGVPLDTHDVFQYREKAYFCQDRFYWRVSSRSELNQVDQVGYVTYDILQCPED
Description: as §1, §2

Row | SMILES | IC50 (human meprin β) | IC50 (MMP13) [µM] | IC50 (MMP14) [µM] | IC50 (MMP2) [µM] | IC50 (MMP8) [µM] | IC50 (MMP9) [µM] | extent of meprin β inhibition (in words) (human meprin β; scale-up batch, higher doses tested, Figure 4A)
1 | CCCCC[C@H](CC(=O)NO)C(=O)N[C@H](C(=O)N1CCC[C@H]1CO)C(C)C [Actinonin, actinonin, reference compound] | 4.8 ± 0.5 µM | 0.1 | > 1000 | 0.09 | 0.19 | 0.1 ± 0.01 | 
2 | COc1cc(OC)nc(SCc2nnc(SCC(=O)NO)n2-c2ccc(N(C)C)cc2)n1 [SR24717] | ≥ 70 µM and 70 µM | > 100 | > 100 | > 100 | > 100 | > 100 | only partial meprin β inhibition
